# Test results published in the NIST ThermoML archive (doi:10.1021/je0600552).
# Numbers after ± are expanded uncertainties.
# Assays:
# [1] = Crystal; DTA
# [2] = Molar enthalpy of transition or fusion; details: Crystal; DSC
smiles,measurement,setting,value
"Cc1ccc2[nH]c3c(c2c1)CCCC3=O [1-keto-1,2,3,4-tetrahydro-6-methylcarbazole]",Normal melting temperature,[1],195.30 ± 0.9 °C
same,Molar enthalpy of transition or fusion,[2],6.43 ± 0.143 kcal/mol
